Values after ≈ are worked out from the molar mass of the structure shown. Values joined by “and” are separate entries in the source; they are usually repeats but may differ in a detail not shown here. Equal entries are not always repeated. Where two headings read alike, the source gives them in different places.
What was measured:
[1] = test system: Pseudomonas aeruginosa; details: Pedia Pulmonol. 6:91-8 (1989); cited from earlier work
[2] = Clinical Trial II, sputum tobramycin levels with three nebulizers; format: in vivo, patients with cystic fibrosis; details: for sputum tobramycin level, grand mean: 20 patients
Method: This was an open label, multicenter, randomized, cross-over three arm study. Each arm was different nebulizer delivery system. Two arms deliver the same tobramycin formulation.
2. […] The number of inhalations required as recorded.
3. […] The number of inhalations required was recorded.
[…] Each patient received, in random order, one administration from each nebulizer delivery system. Each aerosol administration was separated by a minimum of 48 hr. […] Airway irritation and acute bronchospasm were assessed by measuring spirometry immediately prior to and 30 min post-completion of aerosol administration. A decrease in FEV1>15% in the 30 min spirometry test was considered evidence of bronchospasm.
Immediately after completing the aerosol therapy, the subject rinsed with 30 ml of normal saline through the mount, gargled for 5-10 seconds and expectorated the rinse. This was repeated for a total of three rinses. Sputum specimens were collected at 10 minutes after rinsing oral cavity and 2 hours after completion of the aerosol drug administration. […] Spirometry was obtained 30 minutes following completion of the aerosol drug administration. Following the last aerosol treatment of the study, patients received a brief physical exam after post-spirometry has been measured.

[3] = test system: Pseudomonas aeruginosa; assay: MIC of tobramycin for P. aeruginosa isolates from sputum of CF patients; format: cell-based; details: for # of Patients (isolate with maximum density) / Cumulative Frequency (isolate with maximum density): most common isolate; for Cumulative Frequency (isolate with maximum MIC): most resistant isolate
Method: This study was a one-year review of all microbiologic records at Children's Hospital in Seattle. All positive Pseudomonas aeruginosa culture data were collated that occurred in patients with Cystic Fibrosis. If multiple cultures from a single individual had been obtained, the first culture was taken as representative.
MIC90 is the concentration of the drug which inhibits 90% of Pseudomonas aeruginosa isolates. Sputum samples from CF patients were cultured to produce individual colony forming units (CFUs). The MIC was then determined for individual CFUs. CFUs were considered different isolates if their MICs were different.

[4] = parenteral, short period of time; cited from earlier work
[5] = clinical; format: in vivo, CF patients; details: for Sputum Tobramycin Concentrations / Serum Tobramycin: Baseline; for Sputum Tobramycin Concentrations: per subject or mean line; for Serum Tobramycin / concentration at 1 h / concentration at 2 h: single subjects 001-005 in order; for concentration at 10 min / concentration at 1 h / concentration at 2 h: human, inhaled or intranasal, 300 mg; for concentration at 1 h: 1 hour after aerosol; for concentration at 2 h: 2 hours after aerosol
Excerpt: The doses were separated by at least 2 days and not more than 5 days.

[6] = cited from earlier work
[7] = Preliminary pharmacokinetics of tobramycin in sputum after aerosol; format: in vivo, patients with CF; details: 20 mg/ml in 30 ml half normal saline; for Cmax: Ultraneb 99, 200 inhalations, twenty patients
Method: These levels ranged from 310.4 μg/gm to 5,941 μg/gm, with median level at 1,606 μg/gm). The sputum levels declined rapidly after 30 minutes, reaching a minimum at four hours.

[8] = format: in vivo, CF patients; details: for ± % change FEV1: 30 min after aerosol, 300 mg in 5 ml 1/4 NS, single subjects 001-005 in order
Method: The doses were separated by at least 2 days and not more than 5 days. Peak serum and sputum concentrations were assessed and results are seen in Tables 5 and 6.
Sixty patients were enrolled. Each patient received, in random order, one administration from each nebulizer delivery system. Each aerosol administration was separated by a minimum of 48 hr. […] Airway irritation and acute bronchospasm were assessed by measuring spirometry immediately prior to and 30 min post-completion of aerosol administration. A decrease in FEV1>15% in the 30 min spirometry test was considered evidence of bronchospasm.

[9] = test system: P. aeruginosa; details: cited from earlier work
[10] = test system: Pseudomonas aeruginosa; assay: Previously studied 80 mg doses of tobramycin; format: in vivo, patients; details: initially
Excerpt: If any degree of drug resistance developed, only a small percentage of patients would be effectively treated.

[11] = cited from earlier work; remark: listed apart in the source
[12] = Accelerated stability study at 40° C; format: physicochemical; details: pH greater than 7.0
Excerpt: The higher temperature was chosen to accelerate any degradation process. […] Color was examined by KS scale.

[13] = Sidestream, 300 mg in 5 ml 1/4 NS
[14] = serum, Serum Tobramycin, Pari LC, 300 mg in 5 ml 1/4 NS

In the case of NC[C@H]1O[C@H](O[C@H]2[C@H](O)[C@@H](O[C@H]3O[C@H](CO)[C@@H](O)[C@H](N)[C@H]3O)[C@H](N)C[C@@H]2N)[C@H](N)C[C@@H]1O [tobramycin], the “efficacy of 80 mg doses (in words)” value [1] is listed as “reported effective”, the “sputum tobramycin level, grand mean” value ([2]; Pari LC, 0, 300 mg in 5 ml 0.225 NS) is listed as 0 µg and the “sputum tobramycin level, grand mean” value ([2]; Pari LC, 10 min, 300 mg in 5 ml 0.225 NS) is listed as 639.1 µg. For the same compound, the “sputum tobramycin level, grand mean” value ([2]; Pari LC, 1 hr, 300 mg in 5 ml 0.225 NS) was 117.0 µg, the “sputum tobramycin level, grand mean” value ([2]; Pari LC, 2 hr, 300 mg in 5 ml 0.225 NS) was 77.6 µg and the “sputum tobramycin level, grand mean” value ([2]; Sidestream, 0 hr, 300 mg in 5 ml 0.225 NS) was 0 µg. The “sputum tobramycin level, grand mean” value ([2]; Sidestream, 10 min, 300 mg in 5 ml 0.225 NS) was 465.3 µg, the “sputum tobramycin level, grand mean” value ([2]; Sidestream, 1 hr, 300 mg in 5 ml 0.225 NS) was 75.7 µg and the “sputum tobramycin level, grand mean” value ([2]; Sidestream, 2 hr, 300 mg in 5 ml 0.225 NS) was 88.8 µg. For the same compound, the “sputum tobramycin level, grand mean” value ([2]; Ultra Neb, 0 hr, 600 mg in 30 ml 0.45% NS) was 0 µg, the “sputum tobramycin level, grand mean” value ([2]; Ultra Neb, 10 min, 600 mg in 30 ml 0.45% NS) was 1335.7 µg and the “sputum tobramycin level, grand mean” value ([2]; Ultra Neb, 1 hr, 600 mg in 30 ml 0.45% NS) was 360.0 µg. For the same compound, the “sputum tobramycin level, grand mean” value ([2]; Ultra Neb, 2 hr, 600 mg in 30 ml 0.45% NS) was 158.8 µg, the “concentrations delivered to the endobronchial space (in words)” value ([2]; formulation used with a jet nebulizer) was “in the efficacious range” and the “endobronchial concentration with half dosage (in words)” value ([2]; human, in vivo) was “sufficient to achieve therapeutically effective concentration of tobramycin in the endobronchial space”. For the same compound, the “share of isolates whose MIC is exceeded approximately ten-fold by a sputum level of 128 μg/gm” value ([3]; 128 μg/gm sputum level approximately ten-fold greater than MIC) was 90%, the “share of isolates whose MIC is reached by a sputum level of 128 μg/gm” value ([3]; 128 μg/gm sputum level greater than or equal to MIC) was 98% and the “# of Patients (isolate with maximum density)” value (“# of Patients” below) ([3]; MIC 1 μg/ml, n=58) was 9. The “Cumulative Frequency (isolate with maximum density)” value ([3]; MIC 1 μg/ml, n=58) was 78%, the “Cumulative Frequency (isolate with maximum MIC)” value ([3]; MIC 1 μg/ml, n=58) was 67% and the “# of Patients” value ([3]; MIC 2 μg/ml, n=58) was 3. The “Cumulative Frequency (isolate with maximum density)” value ([3]; MIC 2 μg/ml, n=58) was 83%, the “Cumulative Frequency (isolate with maximum MIC)” value ([3]; MIC 2 μg/ml, n=58) was 75% and the “# of Patients” value ([3]; MIC 4 μg/ml, n=58) was 2. The “Cumulative Frequency (isolate with maximum density)” value ([3]; MIC 4 μg/ml, n=58) was 86%, the “Cumulative Frequency (isolate with maximum MIC)” value ([3]; MIC 4 μg/ml, n=58) was 83% and the “# of Patients” value ([3]; MIC 8 μg/ml, n=58) was 2. For the same compound, the “Cumulative Frequency (isolate with maximum density)” value ([3]; MIC 8 μg/ml, n=58) was 90%, the “Cumulative Frequency (isolate with maximum MIC)” value ([3]; MIC 8 μg/ml, n=58) was 86% and the “# of Patients” value ([3]; MIC 16 μg/ml, n=58) was 2. For the same compound, the “Cumulative Frequency (isolate with maximum density)” value ([3]; MIC 16 μg/ml, n=58) was 93%, the “Cumulative Frequency (isolate with maximum MIC)” value ([3]; MIC 16 μg/ml, n=58) was 90% and the “# of Patients” value ([3]; MIC 32 μg/ml, n=58) was 1. The “Cumulative Frequency (isolate with maximum density)” value ([3]; MIC 32 μg/ml, n=58) was 95%, the “Cumulative Frequency (isolate with maximum MIC)” value ([3]; MIC 32 μg/ml, n=58) was 93% and the “# of Patients” value ([3]; MIC 64 μg/ml, n=58) was 1. The “Cumulative Frequency (isolate with maximum density)” value ([3]; MIC 64 μg/ml, n=58) was 97%, the “Cumulative Frequency (isolate with maximum MIC)” value ([3]; MIC 64 μg/ml, n=58) was 95% and the “# of Patients” value ([3]; MIC 128 μg/ml, n=58) was 2. For the same compound, the “Cumulative Frequency (isolate with maximum density)” value ([3]; MIC 128 μg/ml, n=58) was 98%, the “Cumulative Frequency (isolate with maximum MIC)” value ([3]; MIC 128 μg/ml, n=58) was 98% and the “# of Patients” value ([3]; MIC 256 μg/ml, n=58) was 1. The “Cumulative Frequency (isolate with maximum density)” value ([3]; MIC 256 μg/ml, n=58) was 100%, the “Cumulative Frequency (isolate with maximum MIC)” value ([3]; MIC 256 μg/ml, n=58) was 100% and the “# of Patients” value ([3]; MIC .25 μg/ml, n=58) was 26. The “Cumulative Frequency (isolate with maximum density)” value ([3]; MIC .25 μg/ml, n=58) was 45%, the “Cumulative Frequency (isolate with maximum MIC)” value ([3]; MIC .25 μg/ml, n=58) was 36% and the “# of Patients” value ([3]; MIC .5 μg/ml, n=58) was 10. For the same compound, the “Cumulative Frequency (isolate with maximum density)” value ([3]; MIC .5 μg/ml, n=58) was 63%, the “Cumulative Frequency (isolate with maximum MIC)” value ([3]; MIC .5 μg/ml, n=58) was 53% and the MIC ([3]; Pseudomonas aeruginosa) was 128 µg/mL. The inhibition at 128 µg/mL ([3]; Pseudomonas aeruginosa, read-out: inhibition of most resistant and most common isolates) was 98%, the MIC ([3]; Table 3: most tobramycin-resistant isolate of each patient, n=58, number of patients on same line) was “.25 µg/mL and .5 µg/mL and 1 µg/mL and 2 µg/mL and 4 µg/mL and 8 µg/mL and 16 µg/mL and 32 µg/mL and 64 µg/mL and 256 µg/mL” and the MIC ([3]; Table 4: most common isolate (maximum density) of each patient, n=58, number of patients on same line) was “.25 µg/mL and .5 µg/mL and 1 µg/mL and 2 µg/mL and 4 µg/mL and 8 µg/mL and 16 µg/mL and 32 µg/mL and 64 µg/mL and 128 µg/mL and 256 µg/mL”. For the same compound, the “treatment of exacerbations in CF (in words)” value [4] was “successfully treat exacerbations which occur in patients with CF”, the “Sputum Tobramycin Concentrations” value ([5]; Pari LC, 300 mg in 5 ml 1/4 NS) was “bql (< 20 μg/gm)” and the “Serum Tobramycin” value ([5]; Pari LC, 300 mg in 5 ml 1/4 NS) was “not detected”. For the same compound, the “achievement of target sputum concentration (in words)” value ([5]; Sidestream and Pari LC, target 128-1000 μg/g, 300 mg in 5 ml 1/4 NS) was “able to achieve a target concentrations of tobramycin in sputum”, the “Sputum Tobramycin Concentrations” value [5, 13] was “bql (< 20 μg/gm)” and the “Serum Tobramycin” value [5, 13] was “not detected”. The concentration at 10 min ([5]; in vivo, Sidestream, 10 min, 5 subjects) was 527000 ± 586000 ng/g, the concentration at 1 h [5, 14] was 500 ng/mL and the concentration at 2 h [5, 14] was 400 ng/mL. For the same compound, the concentration at 1 h ([5]; serum, Serum Tobramycin, Sidestream, 300 mg in 5 ml 1/4 NS) was 200 ng/mL, the concentration at 10 min ([5]; sputum, 300 mg in 5 ml of 60 mg/ml in 1/4 NS, read-out: sputum concentration achieved (target concentration)) was greater than 128000 ng/g and the concentration at 10 min ([5]; sputum, Sputum Tobramycin Concentrations, Mean/Std Dev, Pari LC, 10 min, 5 subjects) was 811000 ± 677000 ng/g. The concentration at 2 h ([5]; sputum, Sputum Tobramycin Concentrations, Sidestream, 300 mg in 5 ml 1/4 NS) was 57500 ng/g, the solubility [6] was 160 mg/mL (≈ 342 mM) and the “time of minimum sputum level” value ([7]; Ultraneb 99) was “four”. The Cmax ([7]; human, sputum, inhaled or intranasal, read-out: peak sputum level, median) was 1.61e+06 ng/g, the Cmax ([7]; human, sputum, inhaled or intranasal, read-out: peak sputum levels, range) was 310000 to 5.94e+06 ng/g and the Tmax ([7]; human, sputum, inhaled or intranasal, Ultraneb 99, read-out: time of peak sputum levels after therapy) was 10 to 30 min. The “safety of dosage (in words)” value ([8]; 300 mg in 5 ml of 60 mg/ml in 1/4 NS) was “extremely safe”, the “± % change FEV1” value ([8]; Pari LC) was -1.2% and 1.2% and -0.6% and -2% and -5% and the “± % change FEV1” value ([8]; Sidestream) was -2.2% and 0.0% and -7.6% and -1%. The “reduction in the density of P. aeruginosa in sputum, factor” value ([9]; aerosolized, all three 28-day periods) was 100, the “improvement with aerosolized treatment (in words)” value ([9]; entire three-period study) was “significant improvement” and the “share of patients in whom dose would be predicted to be efficacious” value [10] was “sixty to seventy”. The binding by sputum [11] was “up to 90%” and the “degradation of tobramycin (in words)” value [12] was “degradation of tobramycin occurs”.

— patent US5508269A, “Aminoglycoside formulation for aerosolization” (priority 1994, dated 1996)
